Here are results for 19 molecules from ChEMBL document CHEMBL5584249, “Machine learning-based QSAR and LB-PaCS-MD guided design of SARS-CoV-2 main protease inhibitors” (Bioorg Med Chem Lett, 2024).

The assay addresses Replicase polyprotein 1ab (Severe acute respiratory syndrome coronavirus 2, UniProt P0DTD1). Description: Inhibition of recombinant SARS CoV-2 main protease by FRET assay.

The pIC50 is the negative decadic logarithm of the IC50, by convention in mol/L. For `Cc1ccc(-n2[se]c3ccccc3c2=O)cc1`, the pIC50 is 5.64.

With `COc1ccc(-n2[se]c3ccccc3c2=O)cc1`, the pIC50 is 5.903.

With `O=c1c2ccccc2[se]n1-c1ccc(F)cc1`, the negative logarithm of the IC50 (pIC50) is 5.556.

`O=c1c2ccccc2[se]n1-c1cc(Cl)cc(Cl)c1`: the pIC50 is on record as 6.194.

Turning to `N#Cc1cccc(-n2[se]c3ccccc3c2=O)c1`, the pIC50 turned out to be 6.42.

In the case of `O=c1c2ccccc2[se]n1-c1c(F)cccc1F`, the pIC50 is listed as 5.68.

In the case of `O=c1c2ccccc2[se]n1-c1ccc(C(F)(F)F)cc1`, the IC50 was 0.9 µM (read-out: IC50) and 0.883 µM (read-out: pIC50 (converted)).

Take `O=c1c2ccccc2[se]n1Cc1ccc(F)cc1`: the pIC50 is recorded as 6.

`CCc1ccc(-n2[se]c3ccccc3c2=O)cc1`: the pIC50 is reported as 5.209.

`COc1ccc(F)cc1-n1[se]c2ccccc2c1=O`: the pIC50 is 5.481.

In the case of `COc1cc(F)ccc1-n1[se]c2ccccc2c1=O`, the pIC50 is 5.745.

As for `O=c1c2ccccc2[se]n1-c1ccc(Br)cc1`, the pIC50 amounted to 5.556.

Regarding `O=c1c2ccccc2[se]n1-c1cccc(Cl)c1`, the pIC50 was 6.167.

On to `O=c1c2ccccc2[se]n1-c1cccc(C(F)(F)F)c1`, for which the pIC50 is listed as 5.558.

For the molecule `COc1ccc(Cn2[se]c3ccccc3c2=O)c(OC)c1`, the pIC50 was determined as 6.215.

For `Cc1ccccc1-n1[se]c2ccccc2c1=O`, the pIC50 stood at 5.129.

`COc1ccc2[se]n(-c3ccccc3)c(=O)c2c1`: the IC50 is, setting by setting: (read-out: IC50) 6.4 µM; (read-out: pIC50 (converted)) 6.18 µM.

On to `CCCCCCCc1ccc(-n2[se]c3ccccc3c2=O)cc1`, for which, for the setting “read-out: IC50”, the IC50 was 5.56 µM.

Regarding `CCCCCCCCc1ccc(-n2[se]c3ccccc3c2=O)cc1`, the IC50 (read-out: IC50) stood at 2.69 µM.
